The subject of data set [1] is mouse whole blood. The data set is described as follows: Bioflux flow chamber assay, mouse whole blood on collagen. The data set is classed as cell-based. Conditions: ML265 150 μM. As for the experimental part: In vitro thrombosis assays were performed using BioFlux™ 200 (Fluxion Biosciences, USA) microfluidics flow chamber (Nayak et al., 2018). The channels were coated with Type I collagen (100 μg/ml) for one hour at room temperature and then blocked with 0.5% BSA for 30 minutes. Platelets were isolated from citrated whole blood as described above, washed, labeled with the fluorescent dye (calcein AM; 2 μM) and were reconstituted back with PPP and remaining blood containing leukocytes and RBC. The whole blood pretreated with ML265 or vehicle (DMSO) was perfused over the collagen-coated plate at shear stress 1500 s^−1 for 5 minutes. Experiments were performed in triplicates using whole blood from human and mice. The fluorescently labeled platelets/thrombi on the collagen-coated surface were analyzed using ImageJ software from NIH (Bethesda, MD, USA).

Data set [2] has as its system integrin αIIbβ3. Briefly: Integrin αIIbβ3 activation (PAC-1 binding), human platelets. The data set is classed as cell-based. Conditions: convulxin or TRAP-induced.
Data set [3] deals with mouse platelets. The data set is described as follows: Glucose uptake assay, mouse platelets. It counts as cell-based. The note with it: mouse platelets stimulated with convulxin or thrombin. As for the experimental part:
Glucose uptake was determined in activated versus non-activated platelets using 10 mM ^14C-2-deoxy-glucose. Washed platelets (2×10^8/mL) treated with vehicle (DMSO) or ML265 (50 and 100 μM) were incubated in 1× Tyrode buffer and stimulated with convulxin or thrombin for 10 minutes, placed on ice and then centrifuged at 4000 rpm for 5 minutes. The pellets were washed with cold 1×PBS and solubilized in 1N NAOH. Radioactive counts were determined using a Perkin Elmer TriCarb 2800TR liquid scintillation counter.

Data set [4] has as its system human platelets. Briefly: Metabolomic analysis of human platelets. The data set is classed as cell-based. The procedure:
Human washed platelets (3×10^8 cells in 300 μl) were treated with ML265 (100 μM) or DMSO for 10 mins and stimulated by convulxin for 10 minutes. Cells were then fixed by adding 80% methanol and sent to Metabolon Inc. (Morrisville, NC, USA) for metabolomic analysis. Briefly, samples were homogenized and subjected to methanol extraction then split into aliquots for analysis by ultra-high-performance liquid chromatography/mass spectrometry (UHPLC/MS) in the positive (two methods) and negative (two methods) mode. Metabolites were then identified by automated comparison of ion features to a reference library of chemical standards followed by visual inspection for quality control as previously described (Dehaven et al., 2010). Metaboanalyst 4.0 feature PatternHunter was used for finding the metabolites showing correlation (≥0.5) with specific trends (Xia et al., 2009). The metabolites obtained after PatternHunter analysis have been represented as a heatmap. Furthermore, to understand the functional role of the changes in concentration of these metabolites, the pathway analysis was performed using Metaboanalyst 4.0. The Global Ancova and Relative-betweenness Centrality topological measures were used to identify the highly impacted pathways with KEGG human metabolic library as the reference. The False Discovery Rate corrected pathway terms with P≤0.05 were considered significant.

For data set [5], the system named is human platelets. Briefly: Annexin V-affinity assay, human platelets. The data set is classed as cell-based. The procedure:
Mouse and human washed platelets (1×10^8/ml) were pre-incubated with different concentrations of ML265 ([…]). Washed platelets activated with thrombin (0.5 U/ml)+convulxin (100 ng/ml) were used as a positive control. The samples were added to 1× Annexin V-binding buffer (BD Biosciences). Following this, annexin V-FITC antibody was added to each sample, gently mixed, and incubated at room temperature for 15 minutes in the dark. After incubation, 1× Annexin-binding buffer was added to each tube and analyzed by a Becton Dickinson FACSCalibur flow cytometer.

Data set [6] deals with murine platelets. The data set is described as follows: In vitro platelet aggregation, mouse platelet-rich plasma. It counts as cell-based. The note with it: convulxin, collagen, PAR4 and ADP, ML265 50 and 100 μM. As for the experimental part:
Platelet rich plasma (PRP) or washed platelets (2×10^8/ml) treated with vehicle (DMSO) or ML265 (50 and 100 μM) were stirred (1200 rpm) at 37° C. for 2 min in a whole blood/optical lumi-aggregometer (Chrono-log; model 700-2) before the addition of agonists (convulxin, collagen, thrombin, PAR4, TRAP (PAR1 agonist) or adenosine diphosphate [ADP]). Aggregation was measured as percent change in light transmission, where 100% refers to transmittance through the blank sample (PRP/Buffer). Platelet dense granule secretion was determined by measuring the release of ATP using luciferin-luciferase reagent. To examine the effect of ML265 on ATP secretion, washed platelets were pretreated with vehicle (DMSO) or ML265 (50 and 100 μM) for 10 minutes before stimulation with various agonists. ATP release was performed in a lumi-aggregometer (Chrono-log; model 700-2) at 37° C.

The test system of data set [7] is male obese mice (fed a high-fat diet for 4 months). The data set is described as follows: FeCl3-injury induced carotid artery thrombosis in obese mice. Conditions: 5.0% FeCl3 injury, infused with ML265. It counts as in vivo, mouse. An excerpt:
FIGS. 16A-16D. ML265 inhibits platelet aggregation and arterial thrombosis in pre-existing comorbid condition of obesity. Wild-type (C57BL6/J) mice fed a chow and high-fat diet (Cat #TD.06414, Envigo, 60% Kcal from fat) for 4 months. (A) Blood glucose levels (B) Blood glucose levels during the insulin tolerance test. Statistics (A & B): Two-way ANOVA with Tukey's multiple comparisons test (*P<0.05, **P<0.01, ***P<0.001, ****P<0.0001; n=10 mice/group). (C) Platelet rich plasma or washed platelets from obese mice were pretreated with vehicle or ML265 and stimulated with agonists including collagen (1 μg/mL) and thrombin (0.02 U/mL). The results are represented as percent change light transmission after subtracting the blank (platelet poor plasma/Tyrode's buffer). […]
Thrombus formation in the carotid artery after the FeCl3 injury was assessed by intravital microscopy. […] Whatman paper (0.5×1.5 mm) saturated with ferric chloride (5%) solution was applied topically for 1.5 minutes for male and 2 mins for female mice, and thrombus formation in the injured carotid vessel was monitored in real time using a Nikon upright microscope (Plan Fluor 4×/0.2 objective), and thrombus growth overtime was recorded using a high-speed electron-multiplying camera for 40 minutes or until occlusion occurred. […] Videos were evaluated off-line using a Nikon computer-assisted image analysis program.

Where [8] appears, read: ML265 100 μM, convulxin-stimulated human platelets.

Each structure is given as a SMILES string. A value given as a limit tells only on which side of the number the result lay.

For the molecule `Cn1c2cc([S+](C)[O-])sc2c2cnn(Cc3cccc(N)c3)c(=O)c21` (stereo not drawn) [ML265, 6-[(3-aminophenyl)methyl]-4,6-dihydro-4-methyl-2-(methylsulfinyl)-5H-thieno[2′,3′:4,5]pyrrolo[2,3-d]pyridazine-5-one], in data set [1] (collagen, 1500 s-1), the “thrombus growth rate vs vehicle control” value is “marked reduction”. Also, the “percent of the area covered by platelets vs vehicle control” value in data set [1] (collagen, 1500 s-1, 5 minutes) is “marked reduction”. In addition, the “rate of thrombus growth (slope over time)” value in data set [1] (vehicle slope 236.1) stood at 61.65. Also, in data set [2], the “activation of αIIbβ3 (PAC-1 binding)” value is “decreased”. The glucose uptake entry in data set [3] was “reduced”. Moreover, in data set [4] (setting [8]), the “levels of arachidonic acid and 12-HETE” value is listed as “altered”; the “metabolites in the glycolytic pathway, including glucose uptake and lactate production” value is on record as “altered”. Further, the “level of free fatty acids and palmitate” value in data set [4] (ML265 100 μM, human platelets) is reported as “altered”. In addition, the palmitate result in data set [4] (ML265 pre-treated activated human platelets compared to control) is listed as “downregulated”. Besides, the arachidonate level result in data set [4] (convulxin-stimulated human platelets pre-treated with ML265, vs convulxin alone) is “further decrease”. Further, the glycerophospholipid metabolism entry in data set [4] (pre-treatment of human platelets with ML265) was “downregulated”. Besides, the “concentration not inducing phosphatidyl serine surface expression (annexin V)” value in data set [5] is ≤ 300 µM. Moreover, the “apoptosis in resting platelets (Annexin V binding)” value in data set [5] (increasing concentrations of ML265) is listed as “does not induce”. Moreover, in data set [6], the stimulus-dependent platelet aggregation result is “reduced”. Further, in data set [7], the “arterial thrombosis in pre-existing comorbid condition of obesity” value is given as “inhibited”.

The values are drawn from patent publication US12337005B2, “Methods of treating thrombosis” (UNIVERSITY OF IOWA RESEARCH FOUNDATION, priority 2020, dated 2025).
